Test results taken from ChEMBL document CHEMBL1201862, “PubChem BioAssay data set” (2004).
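Five compound concentrations were applied to cells in 96-well plates for 48 hours; endpoints were derived by simple linear interpolation of the resulting dose-response curve. Abbreviation: GI50, concentration required for 50% inhibition of growth.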 The source made the active and inactive calls. Rule as the data show it: active = GI50 up to about 1.1 µM and inactive = higher.

Columns and labels:
Test in all cases: NCI tumour cell line growth inhibition, 48 h
NCI-H23 = tested on: NCI-H23
U-251 = tested on: U-251
SNB-19 = tested on: SNB-19
K562 = tested on: K562
KM12 = tested on: KM12
CCRF-CEM = tested on: CCRF-CEM
SN12C = tested on: SN12C
BT-549 = tested on: BT-549
M14 = tested on: M14
SF-268 = tested on: SF-268
NCI-H522 = tested on: NCI-H522
OVCAR-3 = tested on: OVCAR-3
OVCAR-5 = tested on: OVCAR-5
OVCAR-4 = tested on: OVCAR-4
MDA-MB-231 = tested on: MDA-MB-231
SK-MEL-2 = tested on: SK-MEL-2
HCC 2998 = tested on: HCC 2998
MOLT-4 = tested on: MOLT-4
CAKI-1 = tested on: CAKI-1
EKVX = tested on: EKVX
786-0 = tested on: 786-0
NCI-H226 = tested on: NCI-H226
HT-29 = tested on: HT-29
UACC-257 = tested on: UACC-257
SR = tested on: SR
HOP-62 = tested on: HOP-62
UO-31 = tested on: UO-31
NCI-H460 = tested on: NCI-H460
TK-10 = tested on: TK-10
HCT-116 = tested on: HCT-116
SNB-75 = tested on: SNB-75
ACHN = tested on: ACHN
SF-295 = tested on: SF-295
T47D = tested on: T47D
COLO 205 = tested on: COLO 205
PC-3 = tested on: PC-3
MCF7 = tested on: MCF7
MDA-N = tested on: MDA-N
SK-MEL-28 = tested on: SK-MEL-28
Hs-578T = tested on: Hs-578T
IGROV-1 = tested on: IGROV-1
SK-MEL-5 = tested on: SK-MEL-5
Malme-3M = tested on: Malme-3M
SW-620 = tested on: SW-620
SK-OV-3 = tested on: SK-OV-3
UACC-62 = tested on: UACC-62
LOX IMVI = tested on: LOX IMVI
NCI/ADR-RES = tested on: NCI/ADR-RES
DU-145 = tested on: DU-145
MDA-MB-435 = tested on: MDA-MB-435
OVCAR-8 = tested on: OVCAR-8
A498 = tested on: A498
RXF 393 = tested on: RXF 393
RPMI-8226 = tested on: RPMI-8226
A549 = tested on: A549
HCT-15 = tested on: HCT-15

For COc1cc(C)c(S(=O)(=O)N(CCCN)OCCCN)c(C)c1C, the GI50 (NCI-H23) was 31.1 µM (inactive), the GI50 (U-251) was 29.9 µM (inactive) and the GI50 (SNB-19) was 42 µM (inactive). The GI50 (K562) was 15.6 µM (inactive), the GI50 (KM12) was 40.8 µM (inactive) and the GI50 (CCRF-CEM) was 41.2 µM (inactive). For the same compound, the GI50 (SN12C) was 57 µM (inactive), the GI50 (BT-549) was 26.6 µM (inactive) and the GI50 (M14) was 23.6 µM (inactive). The GI50 (SF-268) was 36.7 µM (inactive), the GI50 (NCI-H522) was 22 µM (inactive) and the GI50 (OVCAR-3) was 61.9 µM (inactive). For the same compound, the GI50 (OVCAR-5) was 85.5 µM (inactive), the GI50 (OVCAR-4) was > 100 µM (inactive) and the GI50 (MDA-MB-231) was 25.5 µM (inactive). For the same compound, the GI50 (SK-MEL-2) was 22.2 µM (inactive), the GI50 (HCC 2998) was 16.6 µM (inactive) and the GI50 (MOLT-4) was 13 µM (inactive). For the same compound, the GI50 (CAKI-1) was > 100 µM (inactive), the GI50 (EKVX) was 31.8 µM (inactive) and the GI50 (786-0) was 45.6 µM (inactive). For the same compound, the GI50 (NCI-H226) was > 100 µM (inactive), the GI50 (HT-29) was 46.5 µM (inactive) and the GI50 (UACC-257) was 21.4 µM (inactive). The GI50 (SR) was 17.6 µM (inactive), the GI50 (HOP-62) was 61.7 µM (inactive) and the GI50 (UO-31) was 41.5 µM (inactive). The GI50 (NCI-H460) was 47.1 µM (inactive), the GI50 (TK-10) was 34 µM (inactive) and the GI50 (HCT-116) was 29.6 µM (inactive). For the same compound, the GI50 (SNB-75) was 34.2 µM (inactive), the GI50 (ACHN) was 49.4 µM (inactive) and the GI50 (SF-295) was 31.3 µM (inactive). For the same compound, the GI50 (T47D) was 29.8 µM (inactive), the GI50 (COLO 205) was 21 µM (inactive) and the GI50 (PC-3) was 25.4 µM (inactive). For the same compound, the GI50 (MCF7) was 19.4 µM (inactive), the GI50 (MDA-N) was 36.9 µM (inactive) and the GI50 (SK-MEL-28) was 38.9 µM (inactive). The GI50 (Hs-578T) was 23 µM (inactive), the GI50 (IGROV-1) was 20.2 µM (inactive) and the GI50 (SK-MEL-5) was 20.8 µM (inactive). For the same compound, the GI50 (Malme-3M) was 21.9 µM (inactive), the GI50 (SW-620) was 46.1 µM (inactive) and the GI50 (SK-OV-3) was > 100 µM (inactive). For the same compound, the GI50 (UACC-62) was 48.1 µM (inactive), the GI50 (LOX IMVI) was 27.8 µM (inactive) and the GI50 (NCI/ADR-RES) was > 100 µM (inactive). The GI50 (DU-145) was 33.7 µM (inactive), the GI50 (MDA-MB-435) was 38.9 µM (inactive) and the GI50 (OVCAR-8) was 38.5 µM (inactive). The GI50 (A498) was 39.4 µM (inactive), the GI50 (RXF 393) was 15.6 µM (inactive) and the GI50 (RPMI-8226) was 17.5 µM (inactive). The GI50 (A549) was 68.5 µM (inactive) and the GI50 (HCT-15) was greater than 100 µM.
